From US20200291018A1, “TAM KINASE INHIBITORS” (SYROS PHARMACEUTICALS, INC., priority 2017, published 2020) come the findings set out here.

The target in assay [1] is T1, FLT3 (Homo sapiens, UniProt P36888).
T1 sequence (P36888 27-993): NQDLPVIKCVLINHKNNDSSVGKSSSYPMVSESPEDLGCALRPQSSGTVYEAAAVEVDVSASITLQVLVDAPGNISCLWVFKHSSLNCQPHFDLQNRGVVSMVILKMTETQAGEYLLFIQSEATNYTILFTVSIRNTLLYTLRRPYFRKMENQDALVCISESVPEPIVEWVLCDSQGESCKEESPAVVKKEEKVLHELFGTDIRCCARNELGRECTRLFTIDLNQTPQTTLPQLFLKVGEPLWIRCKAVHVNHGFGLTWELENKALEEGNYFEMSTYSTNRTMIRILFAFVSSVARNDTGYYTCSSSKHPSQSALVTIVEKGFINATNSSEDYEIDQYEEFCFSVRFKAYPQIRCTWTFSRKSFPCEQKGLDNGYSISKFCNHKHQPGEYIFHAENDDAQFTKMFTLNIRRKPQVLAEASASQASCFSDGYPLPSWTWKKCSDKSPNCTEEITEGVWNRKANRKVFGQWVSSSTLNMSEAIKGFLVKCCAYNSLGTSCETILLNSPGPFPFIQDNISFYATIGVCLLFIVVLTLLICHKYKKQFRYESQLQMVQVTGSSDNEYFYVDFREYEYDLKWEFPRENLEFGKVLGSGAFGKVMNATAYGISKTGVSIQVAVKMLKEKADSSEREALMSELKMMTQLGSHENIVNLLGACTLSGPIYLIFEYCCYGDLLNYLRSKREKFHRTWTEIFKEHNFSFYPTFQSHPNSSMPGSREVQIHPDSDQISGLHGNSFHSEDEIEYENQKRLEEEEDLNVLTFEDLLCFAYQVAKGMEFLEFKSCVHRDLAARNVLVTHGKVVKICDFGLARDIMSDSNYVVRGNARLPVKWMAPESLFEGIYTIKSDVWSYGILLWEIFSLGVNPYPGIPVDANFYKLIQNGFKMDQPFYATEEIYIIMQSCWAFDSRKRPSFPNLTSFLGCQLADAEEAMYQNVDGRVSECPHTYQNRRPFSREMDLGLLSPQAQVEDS
Briefly: TR-FRET kinase activity assay, FLT3. The assay is classed as biochemical. The note with it: ATP at Km, 60 minutes. The method, then:
(§1) IC50 values for compound inhibition of AXL, FLT3, MERTK and TYRO3 activity were determined using a TR-FRET activity assay. A peptide substrate with a fluorescent label is phosphorylated on a tyrosine by each enzyme, where the now phosphorylated product is bound by a Europium-labeled antibody specific to that phosphorylation site. The proximity between the antibody and the substrate gives a signal known as TR-FRET. As the enzyme is inhibited by compound, less phosphorylated peptide product is made, causing a decrease in overall signal.
(§2) Activity assays were performed in a 384-well, small volume, black microplates in an active enzyme volume of 10 uL and final developed volume of 20 uL. Final assay conditions are 50 mM HEPES pH 7.5, 10 mM MgCl2, 1 mM EGTA, 0.01% Brij 35 and 1 mM DTT, all at RT. Enzyme, substrate-labeled peptide and compound are mixed, and then the reaction is initiated with the addition of ATP at Km concentration for each enzyme. The reaction is allowed to run 60 minutes and then quenched with a 12.5 mM EDTA (ethylenediamine tetraacetic acid) solution. The plate is then developed with the addition of Europium-labeled antibody for a final volume of 20 uL and is then incubated for 30 minutes in darkness. Plates are read in a PHERASTAR® plate reader. Data are analyzed in GraphPad PRISM.
For orientation: In TR-FRET formats the signal depends on donor and acceptor labels being close together.

Assay [2] addresses T2, AXL (Homo sapiens, UniProt P30530).
T2 sequence (P30530 26-894): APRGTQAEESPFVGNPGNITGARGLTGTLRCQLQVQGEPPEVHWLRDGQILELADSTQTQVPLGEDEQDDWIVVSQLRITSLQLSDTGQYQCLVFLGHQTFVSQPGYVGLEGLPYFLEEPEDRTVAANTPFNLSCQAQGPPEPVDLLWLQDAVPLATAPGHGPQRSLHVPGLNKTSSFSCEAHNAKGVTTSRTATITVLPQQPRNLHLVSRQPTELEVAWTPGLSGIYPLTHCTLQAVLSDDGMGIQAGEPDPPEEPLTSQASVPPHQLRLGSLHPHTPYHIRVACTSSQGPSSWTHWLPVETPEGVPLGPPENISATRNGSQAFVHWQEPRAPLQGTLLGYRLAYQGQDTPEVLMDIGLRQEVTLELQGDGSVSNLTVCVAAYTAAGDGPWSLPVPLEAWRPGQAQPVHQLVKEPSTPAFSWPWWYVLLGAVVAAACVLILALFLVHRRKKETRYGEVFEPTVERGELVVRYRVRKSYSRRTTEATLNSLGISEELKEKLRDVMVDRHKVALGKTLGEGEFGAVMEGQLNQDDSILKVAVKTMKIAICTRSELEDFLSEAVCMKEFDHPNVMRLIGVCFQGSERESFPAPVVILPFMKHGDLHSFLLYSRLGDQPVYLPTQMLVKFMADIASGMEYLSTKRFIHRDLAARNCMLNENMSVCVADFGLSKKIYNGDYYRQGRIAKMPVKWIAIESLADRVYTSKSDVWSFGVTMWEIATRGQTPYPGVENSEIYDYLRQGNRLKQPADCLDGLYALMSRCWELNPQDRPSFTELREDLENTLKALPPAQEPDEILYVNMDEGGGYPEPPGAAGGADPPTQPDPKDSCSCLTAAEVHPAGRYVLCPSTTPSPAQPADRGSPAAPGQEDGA
The experiment in a line: TR-FRET kinase activity assay, AXL. The class given is biochemical. The note with it: ATP at Km, 60 minutes. The protocol:
as §1, §2

Where a name gives a salt, the structure may show the parent alone.

`CCCCNc1cc2c(cn1)c(OC1CCNCC1)ncc2[C@H]1CC[C@H](O)CC1` [Compound 107]: the IC50 in assay [1] and in assay [2] was at most 100 nM each time.

As to `CCCCC[C@H](C)Nc1ncc2c(=O)n(C3CCOCC3)cc([C@H]3CC[C@H](O)CC3)c2n1` [Compound 108], the IC50 (in general, the concentration that inhibits the measured activity by half) in assay [1] lay in the range of 1000 to 10000 nM; in assay [2], 100 to 1000 nM.

With `CCCCNc1cc2c(cn1)c(=O)n(C1CCNCC1)cc2[C@H]1CC[C@H](O)CC1` [Compound 109, 6-(butylamino)-4-((1r,4r)-4-hydroxycyclohexyl)-2-(piperidin-4-yl)-2,7-naphthyridin-1(2H)-one hydrochloride], the IC50 in assay [1] and in assay [2] was 100 to 1000 nM in each case.

`CC[C@@H](C)Nc1ncc2c(OC3CCN(C)CC3)ncc([C@H]3CC[C@H](O)CC3)c2n1` [Compound 195]: the IC50 in assay [1] lay within 1000 to 10000 nM; in assay [2] it was 100 to 1000 nM.

For `CCC[C@@H](C)Nc1ncc2c(OC3CCNCC3)ncc([C@H]3CC[C@H](O)CC3)c2n1` [Compound 196], the IC50 in assay [1] lay in the range of 1000 to 10000 nM; in assay [2], 100 to 1000 nM.

`Cc1cccc(Nc2ncc3c(OC4CCNCC4)ncc([C@H]4CC[C@H](O)CC4)c3n2)c1` [Compound 197]: the IC50 in assay [1] was 100 to 1000 nM; in assay [2], at most 100 nM.

Turning to `Cc1cc(Cl)ccc1Nc1ncc2c(OC3CCNCC3)ncc([C@H]3CC[C@H](O)CC3)c2n1` [Compound 198], the IC50 in assay [1] was 100 to 1000 nM; in assay [2], 1000 to 10000 nM.

In the case of `CCCC(C)Nc1ncc2c(=O)n([C@H]3CCN(C)C[C@@H]3F)cc([C@H]3CC[C@H](O)CC3)c2n1` (some centres unmarked) [Compound 199], the IC50 in assay [1] and in assay [2] was 1000 to 10000 nM in each case.

`CCCC(C)Nc1ncc2c(=O)n([C@@H]3CCCN(C)C3)cc([C@H]3CC[C@H](O)CC3)c2n1` (some centres unmarked) [Compound 200]: the IC50 in assay [1] and in assay [2] was 1000 to 10000 nM throughout.

Take `CCCC(C)Nc1ncc2c(=O)n(C3CCN(C4COC4)CC3)cc([C@H]3CC[C@H](O)CC3)c2n1` (some centres unmarked) [Compound 201]: the IC50 in assay [1] lay within 1000 to 10000 nM; in assay [2] it was 100 to 1000 nM.

Regarding `CC(Nc1ncc2c(OC3CCNCC3)ncc([C@H]3CC[C@H](O)CC3)c2n1)c1ccncc1` (some centres unmarked) [Compound 202], the IC50 in assay [1] and in assay [2] was 1000 to 10000 nM in each case.

On to `CCCC(C)Nc1ncc2c(OC3CCNCC3)ncc([C@H]3CC[C@H](O)CC3)c2n1` (some centres unmarked) [Compound 203], for which the IC50 in assay [1] and in assay [2] was at most 100 nM in each case.

For `CCC[C@@H](C)Nc1ncc2c(OC3CCNCC3)ncc([C@H]3CC[C@@H](O)CC3)c2n1` [Compound 204], the IC50 in assay [1] and in assay [2] was 100 to 1000 nM in each case.

In the case of `O[C@H]1CC[C@H](c2cnc(OC3CCNCC3)c3cnc(Nc4cccc(Cl)c4)nc32)CC1` [Compound 205], the half-maximal inhibitory concentration (IC50) in assay [1] and in assay [2] was at most 100 nM in each case.

Consider `O[C@H]1CC[C@H](c2cnc(OC3CCNCC3)c3cnc(Nc4ccc(Cl)cc4)nc32)CC1` [Compound 206], for which the IC50 in assay [1] and in assay [2] was at most 100 nM throughout.

Take `CCc1cccc(Nc2ncc3c(OC4CCNCC4)ncc([C@H]4CC[C@H](O)CC4)c3n2)c1` [Compound 207]: the IC50 in assay [1] was 100 to 1000 nM; in assay [2], at most 100 nM.

`CCC[C@@H](C)Nc1ncc2c(OC3CCN(C)CC3)ncc([C@H]3CC[C@H](O)CC3)c2n1` [Compound 208]: the IC50 in assay [1] and in assay [2] was 100 to 1000 nM throughout.

For the compound `Cc1ccc(Cl)cc1Nc1ncc2c(OC3CCNCC3)ncc([C@H]3CC[C@H](O)CC3)c2n1` [Compound 209], the figures for the IC50 in assay [1] and in assay [2] were 100 to 1000 nM and 1000 to 10000 nM, respectively.

As to `O[C@H]1CC[C@H](c2cnc(OC3CCNCC3)c3cnc(Nc4ccccc4)nc32)CC1` [Compound 210], the IC50 in assay [1] and in assay [2] was at most 100 nM throughout.

Take `O[C@H]1CC[C@H](c2cnc(OC3CCNCC3)c3cnc(NC4CCOCC4)nc32)CC1` [Compound 211]: the half-inhibitory concentration (IC50) in assay [1] and in assay [2] was 100 to 1000 nM each time.

For the compound `CC(C)CNc1ncc2c(OC3CCNCC3)ncc([C@H]3CC[C@H](O)CC3)c2n1` [Compound 212], the IC50 in assay [1] and in assay [2] was 100 to 1000 nM in each case.

`O[C@H]1CC[C@H](c2cnc(OC3CCNCC3)c3cnc(N[C@@H]4CCOC4)nc32)CC1` [Compound 213]: the IC50 in assay [1] was in the range of 1000 to 10000 nM; in assay [2] it was 100 to 1000 nM.

As to `CCCC(C)Nc1ncc2c(O[C@@H]3CCCN(C)C3)ncc([C@H]3CC[C@H](O)CC3)c2n1` (some centres unmarked) [Compound 214], the IC50 in assay [1] and in assay [2] was 1000 to 10000 nM each time.

For the compound `CCOc1ncc(C2CCN(C)CC2)c2nc(N[C@@H](C)CC)ncc12` [Compound 215], the IC50 in assay [1] and in assay [2] was 1000 to 10000 nM each time.

Regarding `O[C@H]1CC[C@H](c2cnc(OC3CCNCC3)c3cnc(N[C@H]4CCCOC4)nc32)CC1` [Compound 216], the IC50 in assay [1] and in assay [2] was 1000 to 10000 nM each time.

As to `CC[C@H](C)Nc1ncc2c(NC3CCOCC3)ncc([C@H]3CC[C@H](O)CC3)c2n1` [Compound 217], the IC50 in assay [1] and in assay [2] was 1000 to 10000 nM throughout.

Consider `C[C@@H](Nc1ncc2c(OC3CCNCC3)ncc([C@H]3CC[C@H](O)CC3)c2n1)c1ccccc1` [Compound 218], for which the IC50 in assay [1] and in assay [2] was 1000 to 10000 nM in each case.

As to `CC[C@H](C)Nc1ncc2c(NC3CCN(C)CC3)ncc([C@H]3CC[C@H](O)CC3)c2n1` [Compound 220], the IC50 was 100 to 1000 nM in assay [1] and at most 100 nM in assay [2].

`CC[C@H](C)Nc1ncc2c(OC3CCN(C)CC3)ncc([C@H]3CC[C@H](O)CC3)c2n1` [Compound 221]: the IC50 in assay [1] lay within 1000 to 10000 nM; in assay [2], 100 to 1000 nM.

On to `CC[C@H](C)Nc1ncc2c(N3CC[C@@H](N(C)C)C3)ncc([C@H]3CC[C@H](O)CC3)c2n1` [Compound 222], for which the values for the IC50 in assay [1] and in assay [2] were 1000 to 10000 nM and 100 to 1000 nM, respectively.

Turning to `CC[C@H](C)Nc1ncc2c(OC3C[C@H]4CC[C@@H](C3)O4)ncc([C@H]3CC[C@H](O)CC3)c2n1` (some centres unmarked) [Compound 223], the IC50 in assay [1] and in assay [2] was 100 to 1000 nM throughout.

Turning to `O[C@H]1CC[C@H](c2cnc(OC3CCNCC3)c3cnc(NCCC(F)(F)F)nc32)CC1` [Compound 224], the IC50 in assay [1] and in assay [2] was at most 100 nM each time.

In the case of `CC[C@H](C)Nc1ncc2c(=O)n(C3CCOCC3)cc([C@H]3CC[C@H](O)CC3)c2n1` [Compound 225], the IC50 in assay [1] fell in the range of 1000 to 10000 nM; in assay [2] it was 100 to 1000 nM.

With `CC[C@H](C)Nc1ncc2c(OC3CCOCC3)ncc([C@H]3CC[C@H](O)CC3)c2n1` [Compound 226], the IC50 in assay [1] and in assay [2] was 100 to 1000 nM throughout.
